According to patent US20240327364A1, “THERAPEUTIC TARGETING OF GPR68 TO INDUCE FERROPTOSIS” (University Of Maryland, Baltimore, priority 2023, published 2024):

Assays:
Thrombin Activated PARs = experiment: GPCR Profiler; type: cell-based
ASK1 = molecular target: T1, ASK1 (Homo sapiens, UniProt Q99683); experiment: KinomeScan; type: binding; conditions: read-out: % Control
T1 construct: purchased DiscoveRx (Fremont, CA)

OX2 = molecular target: T2, OX2 (Homo sapiens, UniProt O43614); experiment: GPCR Profiler; type: cell-based
T2 construct: host or cells: Chem-1 cells expressing Gα15

GPR103 = molecular target: T3, GPR103 (Homo sapiens, UniProt Q96P65); experiment: GPCR Profiler; type: cell-based
T3 construct: host or cells: Chem-1 cells expressing Gα15

ROCK1 = molecular target: T4, ROCK1 (Homo sapiens, UniProt Q13464); experiment: KinomeScan; type: binding; conditions: read-out: % Control
T4 construct: purchased DiscoveRx (Fremont, CA)

ADCK4 = molecular target: T5, ADCK4 (Homo sapiens, UniProt Q96D53); experiment: KinomeScan; type: binding; conditions: read-out: % Control
T5 construct: purchased DiscoveRx (Fremont, CA)

CLK3 = CLK3 (Homo sapiens, UniProt P49761); experiment: KinomeScan; type: binding; conditions: read-out: % Control
LKB1 = molecular target: T6, LKB1 (Homo sapiens, UniProt Q15831); experiment: KinomeScan; type: binding; conditions: read-out: % Control
T6 construct: purchased DiscoveRx

INSRR = molecular target: T7, INSRR (Homo sapiens, UniProt P14616); experiment: KinomeScan; type: binding; conditions: read-out: % Control
T7 construct: purchased DiscoveRx (Fremont, CA)

5-HT6 = molecular target: T8, 5-HT6 (Homo sapiens, UniProt P50406); experiment: GPCR Profiler; type: cell-based
T8 construct: host or cells: Chem-1 cells with promiscuous Gα15

RIPK1 = molecular target: T9, RIPK1 (Homo sapiens, UniProt Q13546); experiment: KinomeScan; type: binding; conditions: read-out: % Control
T9 construct: purchased DiscoveRx (Fremont, CA)

MARK4 = molecular target: T10, MARK4 (Homo sapiens, UniProt Q96L34); experiment: KinomeScan; type: binding; conditions: read-out: % Control
T10 construct: purchased DiscoveRx (Fremont, CA)

STK35 = molecular target: T11, STK35 (Homo sapiens, UniProt Q8TDR2); experiment: KinomeScan; type: binding; conditions: read-out: % Control
T11 construct: purchased DiscoveRx (Fremont, CA)

CAMK1 = molecular target: T12, CAMK1 (Homo sapiens, UniProt Q14012); experiment: KinomeScan; type: binding; conditions: read-out: % Control
T12 construct: purchased DiscoveRx (KinomeScan service)

DYRK1B = molecular target: T13, DYRK1B (Homo sapiens, UniProt Q9Y463); experiment: KinomeScan; type: binding; conditions: read-out: % Control
T13 construct: purchased DiscoveRx (Fremont, CA), KinomeScan service

A549 = experiment: Cell Titer-Glo viability, Lung Adenocarcinoma; type: cell-based; conditions: 72 hours
Experimental: (§1) OGM2 kills wide variety of cancer cell types. Cell sensitivity can be classified in to Very Sensitive (LC50<2 μM), Sensitive (LC50=2 to 10 μM), Mildly Sensitive (LC50>10 μM), and Refractory (no killing at 10 μM). The listed established cell were incubated with OGM2 at 2 μM or 10 μM for 72 hours under standard cell culture conditions, and relative cell number was assessed using Cell Titer-Glo Luminescent Cell Viability Assay (Promega™) following the manufacturer's instructions. Luminescence was determined using a Cytation 5 reader and Gen5 software package (BioTek™).
(§2) Cancer cells, which are very sensitive to killing by OGM2 (LCs <2 μM), with reported mRNA expression of GPR68 and the related proton sensing receptor GPR4. LC50's (concentrations causing 50% lethality) were determined using CellTiter-Glo (Promega™, G7570). Cells were plated in 12-well plates (CELLTREAT Scientific Products, 229112) in 1 ml of DMEM with high glucose, GlutaMAX, HEPES, or RPMI 1640 with Penicillin-Streptomycin (ThermoFisher™, 10564029, 11875119 and 15140122) and 10% FBS. Cells were incubated overnight at 37° C. in 5% CO2. Then 1 mL of fresh media was added with DMSO, OGM, or positive control (Erastin; APExBIO Technology, LLC, B1524) and cells incubated for 3 days. On the third day, all media was removed, cells were rinsed with 1×PBS, PBS was removed, and 200 μL of 1× Passive Lysis Buffer (Promega™, E1941) was added to each well. […]. […] Plates were briefly spun down and read on a GloMax-Multi Detection System (Promega™).
(§3) The cells listed in the tables above were incubated with OGM2 at 2 μM or 10 μM for 72 hours under standard cell culture conditions, and relative cell number was assessed using Cell Titer-Glo Luminescent Cell Viability Assay (Promega™) following the manufacturer's instructions. Luminescence was determined using a Cytation 5 reader and Gen5 software package (BioTek™). […] The consensus normalized expression value (“nTPM”=normalize transcript per million) was calculated as the maximum nTPM value for each gene in the two data sources.

SW480 = experiment: Cell Titer-Glo viability, Colon adenocarcinoma; type: cell-based; conditions: 72 hours
Experimental: as §1, §2, §3

Panc02 = experiment: Liperfluo lipid peroxidation; type: cell-based, mouse; conditions: OGM2 and ionizing radiation
Experimental: Where appropriate, ANOVA, or student's T-test were conducted in PRISM. Chi squared T(X) was used for Liperfluo analysis. A value T(X)>4 implies that the two distributions are different with a p<0.01 (99% confidence). For drug interaction and therapeutic interaction, the coefficient of drug interaction (CDI) was calculated as follows: CDI=AB/(A×B). According to the impact of each group, AB is the value of combined treatment and A or B is the value of the single agent group to control group.
Radiation, like OGM2, induces lipid peroxidation in addition to DNA damage. OGM was tested for its ability to sensitize lung and pancreatic cancers to radiation induced lipid peroxidation and ferroptosis. Cells were incubated at 37° C. in 5% CO2 in […] DMEM with DMSO, OGM2, or Erastin for 3 days. Then 2.5 μM Liperfluo in 3 ml fresh media was added and cells were incubated at 37° C. in 5% CO2 for 1 hour. Cells were then trypsinized, pelleted, and resuspended in cell sorting media (1% BSA and 1 mM EDTA in PBS pH 7.4). A BD LSR II was used to record Ten thousand events and the data processed with FlowJo v10.8. […] All treatments were highly significant with Chi-squared >4 indicating a p<0.01.

T8 sequence (P50406 whole entry, species assumed): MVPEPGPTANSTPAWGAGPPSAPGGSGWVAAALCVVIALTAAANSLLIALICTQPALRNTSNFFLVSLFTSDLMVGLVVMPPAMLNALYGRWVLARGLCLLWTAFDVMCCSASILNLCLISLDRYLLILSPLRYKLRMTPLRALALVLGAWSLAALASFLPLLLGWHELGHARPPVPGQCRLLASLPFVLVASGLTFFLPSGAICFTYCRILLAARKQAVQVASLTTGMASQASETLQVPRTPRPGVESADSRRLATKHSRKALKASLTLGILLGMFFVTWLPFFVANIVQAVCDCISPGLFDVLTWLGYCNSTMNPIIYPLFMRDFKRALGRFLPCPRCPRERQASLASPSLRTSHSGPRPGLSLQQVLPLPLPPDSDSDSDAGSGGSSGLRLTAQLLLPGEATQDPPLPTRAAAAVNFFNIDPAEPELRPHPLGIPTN
T2 sequence (O43614 whole entry): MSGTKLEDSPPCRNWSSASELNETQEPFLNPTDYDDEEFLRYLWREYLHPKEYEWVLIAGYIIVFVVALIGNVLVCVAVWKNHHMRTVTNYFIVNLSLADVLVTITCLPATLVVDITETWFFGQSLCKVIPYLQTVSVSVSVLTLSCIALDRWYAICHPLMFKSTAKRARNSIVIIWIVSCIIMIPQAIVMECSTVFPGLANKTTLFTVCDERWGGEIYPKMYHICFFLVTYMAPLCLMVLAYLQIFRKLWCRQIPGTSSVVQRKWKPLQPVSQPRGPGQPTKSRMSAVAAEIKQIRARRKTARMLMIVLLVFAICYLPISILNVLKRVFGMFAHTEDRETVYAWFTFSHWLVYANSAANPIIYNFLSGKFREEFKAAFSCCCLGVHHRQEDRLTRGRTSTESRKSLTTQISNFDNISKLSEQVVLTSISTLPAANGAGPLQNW
T3 sequence (Q96P65 whole entry): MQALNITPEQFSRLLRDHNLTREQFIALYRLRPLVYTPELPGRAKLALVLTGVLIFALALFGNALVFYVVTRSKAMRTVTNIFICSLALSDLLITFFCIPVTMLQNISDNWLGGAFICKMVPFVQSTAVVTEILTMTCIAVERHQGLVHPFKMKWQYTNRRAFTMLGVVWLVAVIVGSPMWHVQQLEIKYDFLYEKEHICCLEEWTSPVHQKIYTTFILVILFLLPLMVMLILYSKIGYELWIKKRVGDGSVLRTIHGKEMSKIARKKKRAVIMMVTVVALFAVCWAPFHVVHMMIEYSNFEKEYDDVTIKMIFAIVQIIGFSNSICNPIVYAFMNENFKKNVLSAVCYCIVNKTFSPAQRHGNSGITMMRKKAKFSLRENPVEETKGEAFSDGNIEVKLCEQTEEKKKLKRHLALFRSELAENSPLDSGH
T10 sequence (Q96L34 whole entry): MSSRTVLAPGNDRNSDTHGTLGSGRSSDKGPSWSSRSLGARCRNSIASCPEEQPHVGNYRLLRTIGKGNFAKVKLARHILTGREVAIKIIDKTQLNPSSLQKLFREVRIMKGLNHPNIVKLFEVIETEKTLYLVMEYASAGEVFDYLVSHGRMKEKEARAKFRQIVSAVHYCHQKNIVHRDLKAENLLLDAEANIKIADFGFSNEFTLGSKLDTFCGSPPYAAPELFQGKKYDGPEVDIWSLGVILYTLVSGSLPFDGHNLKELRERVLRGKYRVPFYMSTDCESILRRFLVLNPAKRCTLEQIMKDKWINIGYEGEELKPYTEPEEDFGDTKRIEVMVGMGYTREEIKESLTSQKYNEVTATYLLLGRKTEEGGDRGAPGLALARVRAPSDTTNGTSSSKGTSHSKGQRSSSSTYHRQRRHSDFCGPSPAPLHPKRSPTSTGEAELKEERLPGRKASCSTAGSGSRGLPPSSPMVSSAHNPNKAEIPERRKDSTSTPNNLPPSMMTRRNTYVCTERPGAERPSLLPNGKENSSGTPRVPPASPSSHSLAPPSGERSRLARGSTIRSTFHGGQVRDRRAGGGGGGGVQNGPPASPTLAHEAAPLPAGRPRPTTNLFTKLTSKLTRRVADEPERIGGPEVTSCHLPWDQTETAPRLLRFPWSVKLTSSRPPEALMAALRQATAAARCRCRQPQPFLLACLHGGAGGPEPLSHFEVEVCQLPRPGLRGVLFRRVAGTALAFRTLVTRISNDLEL
T13 sequence (Q9Y463 whole entry): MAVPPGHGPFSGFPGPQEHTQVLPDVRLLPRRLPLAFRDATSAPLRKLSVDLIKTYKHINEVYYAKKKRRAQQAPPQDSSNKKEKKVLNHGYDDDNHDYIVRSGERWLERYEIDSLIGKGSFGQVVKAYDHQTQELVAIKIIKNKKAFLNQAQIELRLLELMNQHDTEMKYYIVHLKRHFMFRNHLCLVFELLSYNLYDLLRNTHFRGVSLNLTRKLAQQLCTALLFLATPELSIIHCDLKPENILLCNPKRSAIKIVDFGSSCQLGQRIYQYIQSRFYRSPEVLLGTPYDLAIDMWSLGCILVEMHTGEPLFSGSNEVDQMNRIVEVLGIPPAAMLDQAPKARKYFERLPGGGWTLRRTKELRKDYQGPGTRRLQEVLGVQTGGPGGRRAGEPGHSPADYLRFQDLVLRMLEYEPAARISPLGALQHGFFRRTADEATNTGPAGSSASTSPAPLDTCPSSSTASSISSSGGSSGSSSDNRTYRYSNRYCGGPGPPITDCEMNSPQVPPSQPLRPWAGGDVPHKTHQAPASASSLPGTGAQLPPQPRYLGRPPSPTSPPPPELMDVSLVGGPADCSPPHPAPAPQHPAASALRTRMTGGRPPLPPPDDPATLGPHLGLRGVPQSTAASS
T11 sequence (Q8TDR2 whole entry): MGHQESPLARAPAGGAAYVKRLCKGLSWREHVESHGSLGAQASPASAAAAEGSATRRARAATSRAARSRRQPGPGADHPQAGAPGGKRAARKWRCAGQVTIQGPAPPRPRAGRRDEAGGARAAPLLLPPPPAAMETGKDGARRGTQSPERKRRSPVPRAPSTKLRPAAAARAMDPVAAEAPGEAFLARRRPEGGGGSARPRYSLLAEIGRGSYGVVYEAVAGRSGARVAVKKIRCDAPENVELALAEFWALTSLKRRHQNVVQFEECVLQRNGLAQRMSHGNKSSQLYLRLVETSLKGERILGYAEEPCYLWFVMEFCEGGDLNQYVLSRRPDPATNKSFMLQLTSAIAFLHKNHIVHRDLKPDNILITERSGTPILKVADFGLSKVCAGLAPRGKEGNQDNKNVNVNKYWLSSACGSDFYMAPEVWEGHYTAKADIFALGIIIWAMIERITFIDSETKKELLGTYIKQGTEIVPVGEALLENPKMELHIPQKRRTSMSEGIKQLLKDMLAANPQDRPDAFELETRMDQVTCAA
T9 sequence (Q13546 whole entry): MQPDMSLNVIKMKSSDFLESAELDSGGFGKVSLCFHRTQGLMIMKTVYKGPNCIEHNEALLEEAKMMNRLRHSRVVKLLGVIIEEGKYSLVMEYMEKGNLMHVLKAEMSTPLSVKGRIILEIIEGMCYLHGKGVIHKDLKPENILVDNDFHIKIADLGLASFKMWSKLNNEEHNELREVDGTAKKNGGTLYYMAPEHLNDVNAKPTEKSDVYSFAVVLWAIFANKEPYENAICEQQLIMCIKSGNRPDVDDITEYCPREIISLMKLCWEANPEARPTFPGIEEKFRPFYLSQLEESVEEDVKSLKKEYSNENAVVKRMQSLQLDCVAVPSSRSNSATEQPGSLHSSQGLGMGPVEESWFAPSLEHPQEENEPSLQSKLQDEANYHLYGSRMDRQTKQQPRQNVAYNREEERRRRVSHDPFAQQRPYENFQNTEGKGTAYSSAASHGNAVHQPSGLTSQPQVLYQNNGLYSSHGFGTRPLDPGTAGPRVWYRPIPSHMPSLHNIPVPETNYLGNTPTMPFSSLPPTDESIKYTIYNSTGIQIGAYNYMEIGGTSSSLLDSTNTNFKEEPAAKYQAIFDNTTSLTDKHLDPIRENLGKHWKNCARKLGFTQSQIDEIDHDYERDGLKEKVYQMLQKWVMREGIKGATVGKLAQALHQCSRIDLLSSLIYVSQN
T5 sequence (Q96D53 whole entry): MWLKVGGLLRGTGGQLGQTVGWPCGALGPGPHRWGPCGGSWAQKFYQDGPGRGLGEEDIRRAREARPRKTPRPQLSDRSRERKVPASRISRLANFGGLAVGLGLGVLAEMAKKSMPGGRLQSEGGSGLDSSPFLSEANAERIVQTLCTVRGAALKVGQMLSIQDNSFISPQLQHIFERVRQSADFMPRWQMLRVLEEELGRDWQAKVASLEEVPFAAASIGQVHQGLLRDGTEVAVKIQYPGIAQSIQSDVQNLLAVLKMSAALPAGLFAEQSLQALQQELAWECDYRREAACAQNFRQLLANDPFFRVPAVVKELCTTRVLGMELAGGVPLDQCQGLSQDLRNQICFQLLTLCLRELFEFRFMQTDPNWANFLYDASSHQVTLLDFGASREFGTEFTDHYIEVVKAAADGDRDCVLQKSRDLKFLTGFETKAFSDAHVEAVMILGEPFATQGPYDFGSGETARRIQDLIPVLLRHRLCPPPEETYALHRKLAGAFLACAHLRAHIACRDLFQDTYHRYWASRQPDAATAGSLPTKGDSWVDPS
T6 sequence (Q15831 whole entry): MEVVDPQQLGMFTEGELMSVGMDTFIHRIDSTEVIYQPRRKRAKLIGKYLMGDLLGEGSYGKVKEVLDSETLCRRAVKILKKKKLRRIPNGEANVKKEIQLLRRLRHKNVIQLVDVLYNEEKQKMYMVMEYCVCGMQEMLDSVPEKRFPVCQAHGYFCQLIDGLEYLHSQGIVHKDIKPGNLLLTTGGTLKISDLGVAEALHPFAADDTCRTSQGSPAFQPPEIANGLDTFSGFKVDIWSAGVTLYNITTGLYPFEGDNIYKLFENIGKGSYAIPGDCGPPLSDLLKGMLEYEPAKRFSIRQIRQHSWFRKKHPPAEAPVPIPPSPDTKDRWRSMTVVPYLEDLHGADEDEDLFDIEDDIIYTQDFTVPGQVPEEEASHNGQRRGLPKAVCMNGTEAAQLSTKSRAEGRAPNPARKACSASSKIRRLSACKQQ

CCc1ccc2c(c1)C1(NN=C(c3cccc4ccccc34)S1)C(=O)N2 (centres unmarked) [OGM1, 5-ethyl-5′-naphthalen-1-ylspiro[1H-indole-3,2′-3H-1,3,4-thiadiazole]-2-one]
Antagonism (Thrombin Activated PARs; 10 uM): 3.2
Agonism (Thrombin Activated PARs; 12.5 uM): 1
remaining binding at 10 µM (ASK1): 100%
Antagonism (OX2; 10 uM): −3.4
Agonism (OX2; 12.5 uM): 0.2
Antagonism (GPR103; 10 uM): −7
Agonism (GPR103; 12.5 uM): −0.1
remaining binding at 10 µM (ROCK1): 71%
remaining binding at 10 µM (ADCK4): 70%
remaining binding at 10 µM (CLK3): 100%
remaining binding at 10 µM (LKB1): 78%
remaining binding at 10 µM (INSRR): 100%
Antagonism (5-HT6; 10 uM): −4.4
Agonism (5-HT6; 12.5 uM): −0.7
remaining binding at 10 µM (RIPK1): 100%
remaining binding at 10 µM (MARK4): 95%
remaining binding at 10 µM (STK35): 100%
remaining binding at 10 µM (CAMK1): 50%
remaining binding at 10 µM (DYRK1B): 58%

CCc1ccc2c(c1)C1(NN=C(c3ccccc3)S1)C(=O)N2 (centres unmarked) [OGM2]
% Survival 2 μM OGM (A549): 33.6%
% Survival 10 μM OGM (A549): 18.0%
CC50 (A549; Homo sapiens, A549, read-out: LC50 (the source's name)): < 2000 nM
% Survival 2 μM OGM (SW480): 39.8%
% Survival 10 μM OGM (SW480): 25.0%
CC50 (SW480; Homo sapiens, SW480, read-out: LC50 (the source's name)): < 2000 nM
CDI, lipid peroxidation (Panc02): < 0.232
